Read-outs that look alike come from different tables or passages of the source.
Columns and labels:
PDGF-Ra = target: T1, PDGF-Ra (Homo sapiens, UniProt P16234); test: Inhibitory activity against PDGF-Ra phosphorylation by PDGF-AA stimulation using G292; type: cell-based; conditions: for IC50: > means inhibition at indicated concentration not more than 50%, < and << not less than 50%, read-out: PDGF (E) IC50; for inhibition at 0.1 µM: G292, at 100 nM, read-out: PDGF (E) inhibition (%) at 100 nM
T1 construct: host or cells: G-292 human osteosarcoma cells
T1 sequence (P16234 24-1089): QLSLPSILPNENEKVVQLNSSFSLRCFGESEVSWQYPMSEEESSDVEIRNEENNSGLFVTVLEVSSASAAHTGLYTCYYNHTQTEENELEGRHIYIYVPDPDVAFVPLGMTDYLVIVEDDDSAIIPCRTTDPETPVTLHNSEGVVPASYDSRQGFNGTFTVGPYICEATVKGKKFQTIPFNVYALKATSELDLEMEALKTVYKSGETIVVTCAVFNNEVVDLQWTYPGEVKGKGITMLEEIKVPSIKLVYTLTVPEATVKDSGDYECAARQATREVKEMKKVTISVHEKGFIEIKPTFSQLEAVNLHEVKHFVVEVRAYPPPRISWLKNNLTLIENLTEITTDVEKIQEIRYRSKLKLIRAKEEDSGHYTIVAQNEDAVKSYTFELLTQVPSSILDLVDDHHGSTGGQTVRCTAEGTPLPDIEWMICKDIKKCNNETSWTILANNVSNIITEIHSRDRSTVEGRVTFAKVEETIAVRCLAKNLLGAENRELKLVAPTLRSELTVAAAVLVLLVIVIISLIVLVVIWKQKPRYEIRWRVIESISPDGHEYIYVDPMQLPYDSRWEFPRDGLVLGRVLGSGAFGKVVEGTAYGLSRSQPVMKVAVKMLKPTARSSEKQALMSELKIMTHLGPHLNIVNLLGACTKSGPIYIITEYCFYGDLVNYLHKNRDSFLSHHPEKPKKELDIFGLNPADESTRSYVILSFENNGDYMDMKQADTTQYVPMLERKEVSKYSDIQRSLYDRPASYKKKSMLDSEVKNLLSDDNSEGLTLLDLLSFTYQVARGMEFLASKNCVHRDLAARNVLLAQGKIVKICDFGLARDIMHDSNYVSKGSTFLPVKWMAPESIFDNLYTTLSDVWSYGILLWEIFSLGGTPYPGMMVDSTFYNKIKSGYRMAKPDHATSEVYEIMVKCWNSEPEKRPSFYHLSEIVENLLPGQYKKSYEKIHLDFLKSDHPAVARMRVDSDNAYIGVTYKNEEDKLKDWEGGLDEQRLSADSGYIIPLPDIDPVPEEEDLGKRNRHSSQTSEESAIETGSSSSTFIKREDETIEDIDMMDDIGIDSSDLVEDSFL
Method in brief: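 In G-292 osteosarcoma cells kept overnight in 0.1% FBS, compound exposure (1 hr, 37 °C) preceded PDGF-AA stimulation at 50 ng/ml for 5 min; receptor phosphotyrosine was then detected by PY-20 capture ELISA.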

c-kit = target: T2, c-kit (Homo sapiens, UniProt P10721); test: Inhibitory activity against c-kit autophosphorylation (MO7e cells, h-SCF); type: cell-based; conditions: for inhibition at 1 µM: Mo7e, figure in parentheses in −( ), at 1000 nM; for IC50: MO7e cells, read-out: c-kit IC50
T2 construct: MO7e (human megakaryocytic leukemia cell line) which had been arrested for 20 hr; endogenous in cells; host or cells: MO7e human megakaryocytic leukemia cell line
T2 sequence (P10721 26-976): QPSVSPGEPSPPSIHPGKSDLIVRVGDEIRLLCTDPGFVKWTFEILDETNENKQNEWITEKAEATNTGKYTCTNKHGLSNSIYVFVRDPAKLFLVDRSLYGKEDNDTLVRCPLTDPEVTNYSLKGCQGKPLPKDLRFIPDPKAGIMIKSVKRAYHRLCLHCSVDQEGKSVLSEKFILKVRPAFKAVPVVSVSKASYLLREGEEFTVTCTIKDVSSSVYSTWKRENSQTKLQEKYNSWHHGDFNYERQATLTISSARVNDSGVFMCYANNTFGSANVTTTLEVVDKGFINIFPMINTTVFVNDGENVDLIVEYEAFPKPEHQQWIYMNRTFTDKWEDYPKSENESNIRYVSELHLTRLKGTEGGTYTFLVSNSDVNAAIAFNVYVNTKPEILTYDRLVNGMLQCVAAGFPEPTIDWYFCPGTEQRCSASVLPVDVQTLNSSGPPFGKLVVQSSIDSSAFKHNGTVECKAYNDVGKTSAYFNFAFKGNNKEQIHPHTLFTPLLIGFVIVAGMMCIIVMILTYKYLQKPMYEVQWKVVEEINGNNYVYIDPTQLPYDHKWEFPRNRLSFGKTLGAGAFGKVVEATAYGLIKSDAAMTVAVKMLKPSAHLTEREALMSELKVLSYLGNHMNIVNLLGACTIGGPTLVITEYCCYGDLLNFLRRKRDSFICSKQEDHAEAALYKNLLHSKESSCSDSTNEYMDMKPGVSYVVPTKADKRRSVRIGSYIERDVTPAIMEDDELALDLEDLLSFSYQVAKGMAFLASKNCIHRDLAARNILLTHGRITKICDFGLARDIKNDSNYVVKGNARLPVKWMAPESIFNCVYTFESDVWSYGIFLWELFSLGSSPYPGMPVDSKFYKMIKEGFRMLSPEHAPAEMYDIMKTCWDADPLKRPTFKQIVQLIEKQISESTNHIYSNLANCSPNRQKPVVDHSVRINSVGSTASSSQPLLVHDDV
Method in brief: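 MO7e cells, arrested for 20 hr, were pretreated with test compound in DMSO for 1 hr and then stimulated with 50 ng/ml h-SCF for 5 min before lysis. Lysates were captured on immobilized anti-phosphotyrosine PY-20, probed with anti-c-kit antibody and HRP anti-rabbit IgG, and read colorimetrically at 450 nm.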

[1] = figure in parentheses in >100( )

Molecule	IC50 (PDGF-Ra)	IC50 (PDGF-Ra; Pharmacological Test Example 1)	IC50 (c-kit; h-SCF 50 ng/ml)	IC50 (c-kit; 50 ng/ml h-SCF)	other results
COc1cc2nccc(Oc3ccc(NC(=O)OCCCSc4ccc(C)cc4)cc3)c2cc1OC [Example 37, 3-[(4-Methylphenyl)sulfanyl)propyl N-{4-[(6,7-dimethoxy-4-quinolyl)oxy]phenyl}carbamate]		< 10 nM	< 30 nM		
COc1cc2ncnc(Oc3ccc(NC(=S)NCCCN4CCOCC4)cc3)c2cc1OC [Example 533, N-{4-[(6,7-Dimethoxy-4-quinazolinyl)oxy]phenyl}-N′-[3-(1-morpholino)propyl]thiourea]	64 nM			623 nM	
COc1cc2nccc(Oc3ccc(NC(=O)OC(C)c4cc(F)c(F)cc4F)cc3)c2cc1OC (centres unmarked) [Example 92, 1-(2,4,5-Trifluorophenyl)ethyl N-{4-[(6 7-dimethoxy-4-quinolyl)oxy]phenyl}carbamate]		< 10 nM	677 nM		
CCN(CC)CCCOC(=O)Nc1cc(C)c(Oc2ccnc3cc(OC)c(OC)cc23)cc1C [Example 427, 3-(Diethylamino)propyl N-{4-[(6,7-dimethoxy-4-quinolyl)oxy]-2,5-dimethylphenyl}carbamate]	> 100 nM			364 nM	inhibition at 0.1 µM (PDGF-Ra; figure within parentheses in >100( )): 13%
COc1cc2nccc(Oc3ccc(NC(=S)NC(=O)c4ccccc4Cl)c(F)c3)c2cc1OC [Example 905, N-(2-Chlorobenzoyl)-N′-{4-[(6,7-dimethoxy-4-quinolyl)oxy]-2-fluorophenyl}thiourea]	5 nM				inhibition at 1 µM (c-kit): 40%
COc1cc2nccc(Oc3ccc(NC(=O)OCCCOc4ccccc4OC)cc3)c2cc1OC [Example 157, 3-(2-Methoxyphenoxy)propyl N-{4-[(6,7-dimethoxy-4-quinolyl)oxy]phenyl}carbamate]		< 10 nM	35 nM		
COc1cc2nccc(Oc3cc(C)c(NC(=O)OCCCOc4ccccc4Cl)cc3C)c2cc1OC [Example 18, 3-(2-Chlorophenoxy)propyl N-{4-[(6,7-dimethoxy-4-quinolyl)oxy]-2,5-dimethylphenyl}carbamate]		22 nM	93 nM		
CCCCCCCCCCCCCCCCCCOC(=O)Nc1ccc(Oc2ccnc3cc(OC)c(OC)cc23)cc1 [Example 326, Octadecyl N-{4-[(6,7-dimethoxy-4-quinolyl)oxy]phenyl}carbamate]		> 100 nM			inhibition at 0.1 µM (PDGF-Ra; [1]): 31%; inhibition at 1 µM (c-kit): 18%
COc1cc2ncnc(Oc3ccc(NC(=O)Oc4ccccc4OC)cc3)c2cc1OC [Example 403, 2-Methoxyphenyl N-{4-[(6,7-dimethoxy-4-quinazolinyl)oxy]phenyl}carbamate]	14 nM			93 nM	
COc1cc2nccc(Oc3ccc(NC(=O)OCCC4CCCCC4)c(C)c3C)c2cc1OC [Example 355, 2-Cyclohexylethyl N-{4-[(6,7-dimethoxy-4-quinolyl)oxy]-2,3-dimethylphenyl}carbamate]		24 nM	252 nM		
COc1cc2nccc(Oc3ccc(NC(=S)NC(=O)Cc4ccccc4)cc3)c2cc1OC [Example 1022, N-{4-[(6,7-Dimethoxy-4-quinolyl)oxy]phenyl}-N′-(2-phenylacetyl)thiourea]	28 nM				IC50 (c-kit; h-SCF stimulation): 202 nM
COc1cc2nccc(Oc3cc(C)c(NC(=O)OCCc4ccccc4)cc3C)c2cc1OC [Example 298, Phenethyl N-{4-[(6,7-dimethoxy-4-quinolyl)oxy]-2,5-dimethylphenyl}carbamate]		< 10 nM	119 nM		

Now from value to molecule, other results behind:

IC50 (PDGF-Ra)	IC50 (PDGF-Ra; Pharmacological Test Example 1)	IC50 (c-kit; h-SCF 50 ng/ml)	IC50 (c-kit; 50 ng/ml h-SCF)	Molecule	other results
> 100 nM				COc1cc2nccc(Oc3cc(C)c(NCCCOc4ccccc4Cl)cc3C)c2cc1OC [Example 892, N-[3-(2-Chlorophenoxy)propyl]-N-{4-[(6,7-dimethoxy-4-quinolyl)oxy]-2,5-dimethylphenyl}amine]	inhibition at 0.1 µM (PDGF-Ra; [1]): 25%; inhibition at 1 µM (c-kit): 30%
	17 nM	514 nM		COc1cc2nccc(Oc3cc(C)c(NC(=O)OCc4ccccc4C)cc3C)c2cc1OC [Example 253, 2-Methylbenzyl N-{4-[(6,7-dimethoxy-4-quinolyl)oxy]-2,5-dimethylphenyl}carbamate]	
	< 10 nM	98 nM		COc1cc2ncnc(Oc3ccc(NC(=O)OCc4ccccc4C)cc3)c2cc1OC [Example 319, 2-Methylbenzyl N-{4-[(6,7-dimethoxy-4-quinazolinyl)oxy]phenyl}carbamate]	
10 nM			548 nM	COc1cc2nccc(Oc3ccc(NC(=S)NC(=O)[C@H](C)c4ccccc4)cc3)c2cc1OC [Example 743, N-{4-[(6,7-Dimethoxy-4-quinolyl)oxy]phenyl}-N′-[(2R)-2-phenylpropanoyl]thiourea]	
	12 nM	712 nM		CCCC(CCC)OC(=O)Nc1cc(C)c(Oc2ccnc3cc(OC)c(OC)cc23)cc1C [Example 333, 1-Propylbutyl N-{4-[(6,7-dimethoxy-4-quinolyl)oxy]-2,5-dimethylphenyl}carbamate]	
17 nM			276 nM	COc1cc2ncnc(Oc3ccc(NC(=O)N[C@@H]4CCN(Cc5ccccc5)C4)cc3)c2cc1OC [Example 566, N-[(3R)-1-Benzyltetrahydro-1H-3-pyrrolyl]-N′-{4-[(6,7-dimethoxy-4-quinazolinyl)oxy]phenyl}urea]	
> 30 nM				COc1cc2nccc(Oc3ccc(NCCOc4c(C)cccc4C)cc3C)c2cc1OC [Example 881, N-{4-[(6,7-Dimethoxy-4-quinolyl)oxy]-3-methylphenyl}-N-[2-(2,6dimethylphenoxy)ethyl]amine]	PDGF (E) inhibition (%), figure in parentheses in >30( ) (PDGF-Ra; figure in parentheses in >30( ), concentration not defined in key (presumably 30 nM)): 29%; IC50 (c-kit; h-SCF stimulation): 346 nM
	12 nM	616 nM		COc1cc2ncnc(Oc3ccc(NC(=O)OC(C)c4cccc(Cl)c4)c(Cl)c3)c2cc1OC (centres unmarked) [Example 7]	
63 nM			719 nM	COc1cc(Oc2ncnc3cc(OC)c(OC)cc23)ccc1NC(=O)NN1CCCCC1 [Example 596, N-{4-[(6,7-Dimethoxy-4-quinazolinyl)oxy]-2-methoxyphenyl}-N′-(1-piperidinyl)urea]	
10 nM				COc1cc2nccc(Oc3ccc(NC(=S)NC(=O)COCc4ccccc4)c(F)c3)c2cc1OC [Example 1031, N-[2-(Benzyloxy)acetyl]-N′-{4-[(6,7-dimethoxy-4-quinolyl)oxy]-2-fluorophenyl}thiourea]	IC50 (c-kit; h-SCF stimulation): 254 nM
< 10 nM			102 nM	3-Morpholinopropyl N-{4-[(6,7-dimethoxy-4-quinolyl)oxy]-2,5-dimethylphenyl}carbamate [Example 423]	
18 nM			104 nM	COc1cc2ncnc(Oc3ccc(NC(=O)N[C@H]4CCN(Cc5ccccc5)C4)c([N+](=O)[O-])c3)c2cc1OC [Example 578, N-[(3S)-1-Benzyltetrahydro-1H-3-pyrrolyl]-N′-{4-[(6,7-dimethoxy-4-quinazolinyl)oxy]-2-nitrophenyl}urea]	
	4 nM	44 nM		CCCCCCOC(=O)Nc1ccc(Oc2ccnc3cc(OC)c(OC)cc23)c(C)c1C [Example 261, Hexyl N-{4-[(6,7-Dimethoxy-4-quinolyl)oxy]-2,3-dimethylphenyl}carbamate]	
	< 10 nM	70 nM		COc1cc2nccc(Oc3cc(C)c(NC(=O)OCCCSc4ccccn4)cc3C)c2cc1OC [Example 174, 3-(2-Pyridylsulfanyl)propyl N-{4-[(6,7-dimethoxy-4-quinolyl)oxy]-2,5-dimethylphenyl}-carbamate]	
